Literature values as cited in patent US11478425B2, “Extended release compositions comprising pyridostigmine” (priority 2017, dated 2022).

Which bioavailability (NDA #020414) does the source give for `CN(C)C(=O)Oc1ccc[n+](C)c1` [pyridostigmine] here?
The bioavailability was 10-20%.

What about the elimination half-life (oral) of the same compound?
Its elimination half-life is 3 to 5 h.

And the “time-to-maximum peak plasma concentration” value (oral)?
The value was 1 to 2 h.
